In patent publication US20050261292A1, “Pharmaceutical composition containing N-sulfamoyl-N'-arylpiperazines for the treatment or inhibition of obesity and related conditions” (Solvay Pharmaceuticals GmbH, priority 2004, published 2005):
Where a name gives a salt, the structure may show the parent alone.

How the values were obtained:
[1] = target: T1, human carbonic anhydrase isoenzyme II (hCA II) (Homo sapiens, UniProt P00918); test: In vitro inhibition of human carbonic anhydrase isoenzyme II (hCA II), dansylamide fluorescence; type: biochemical; details: hCA II from erythrocytes 10^-7 M, 60 min, single measurements, read-out: hCA II inhibiting effect in vitro, IC50
T1 construct: human carbonic anhydrase isoenzyme II from erythrocytes (Sigma-Aldrich); purchased Sigma-Aldrich; host or cells: human erythrocytes (natural source)
Protocol: 1. In vitro Inhibition of Human Carbonic Anhydrase Isoenzyme II (hCA II)
The test compounds of Formula I in 96 well microplates were diluted with aqua bidest by using an automatic pipettor (CyBiWell®). From the different dilution plates, aliquots of 20 μl were transferred to the 96 well black assay plates with a pipetting station (Tecan Genesis®). In a second step, 148 μl of potassium phosphate buffer (20 mM, pH 7.4) was added, and as a third step, 20 μl of enzyme solution (1 μM human carbonic anhydrase isoenzyme II from erythrocytes (Sigma-Aldrich), dissolved in potassium phosphate buffer) incubated for 60 min at room temperature and the fluorescence signal (Tecan Ultra® fluorescence reader; excitation wavelength: 280 nm; emission wavelength: 465 nm) read at the end of the preincubation period (FLU-1). After the preincubation time, 20 μl of aqueous dansylamide solution (1 mM dansylamide (Sigma-Aldrich), dissolved in hydrochloric acid) were added and the fluorescence signal read every 10 min for a period of 60 min at 37° C. For calculation, the fluorescence data of the time point 60 min (FLU-2) were used. The total volume of assay mixture amounted to 208 μl. The final concentration of carbonic anhydrase II was 10^−7 M/L, of dansylamide 2.25×10^−6 and of compounds from 10^−8 M/L up to 10^−5 M/L. Final concentration of DMSO as compound solvent was […]. Each microplate also contained blanks without compound and enzyme, controls without compound and ethoxzolamide (final concentration 5×10^−8 M/L). All data reflect single measurements. Data were expressed as % inhibition after calculation by the formula: % inhibition=100((1−(FLU−2cpd−FLU−2blank−FLU−1cpd+FLU−1blank)/(FLU−2control−FLU−2blank−FLU−1control−FLU−1blank))
The % inhibition data for each compound and the respective final concentrations were used for IC50 calculations by using the Prism 4 software. Concentration action figures were calculated by applying the Prism algorithm for nonlinear regression (curve-fit): sigmoidal dose response with variable slope and the constraints: top: 100 and bottom 0.

male fatty Zucker rats = test: In vivo oral glucose tolerance test in the rat; details: 100 mg/kg/day oral gavage; for Glucose Baseline / Insulin Baseline: 0 min sample before glucose challenge; for Insulin Baseline / Insulin AUC / Insulin Maximal effect: plasma; for Glucose Maximal effect / Glucose AUC / Insulin AUC / Insulin Maximal effect: oral glucose challenge 1.25 g/kg; for Glucose AUC / Insulin AUC: 0-120 min
Protocol: 2. In vivo Oral Glucose Tolerance Test in the Rat
The studies were carried out in individually housed male fatty Zucker rats (n=10 per group) weighing ca. 250-500 g. The rats were kept on a normal 12/12 h light/dark cycle (lights on 07.00) and they were allowed food (lab chow) and water ad libitum except for during experiments, when they were fasted overnight before the glucose challenge.
The test substances of Formula I were suspended in 2% polyethylenglycol (=PEG) 1% carboxymethylcellulose and administered by oral gavage at a dose of 100 mg/kg/day; ⅓ of the dose (1 ml/kg, 33 mg/ml) was administered at 08.30-09.30 h; the remaining […] (2 ml/kg; 33 mg/ml) was administered between 16.00-17.00 h and the last ⅓ dose was given the following morning. Control animals received only the vehicle. On the day of the test, 45 min after the final dose of test substance/vehicle a blood sample (0 min) was taken (tail vein) immediately after which the rats received an oral glucose challenge (1.25 g/kg; 118 mg/ml). Further blood samples were taken at 30, 60, 90, 120 min after the glucose challenge. The second drop of blood of each sample was placed on a glucose test strip before this was placed in the glucose meter for determination of blood glucose level (Life Scan One Touch Ultra Blood® Glucose Meter and Life Scan One Touch Ultra® Test Strips; Life Scan Inc.; Milpitas, Calif. 95035). The remaining blood of each sample was spun and the plasma was frozen at −80° C. before analysis for insulin (1-2-3 Rat Insulin ELISA kit, Alpco Diagnostics).
The values obtained were plotted and the AUC for test compounds and vehicle (for glucose and insulin) were determined after which the percent control AUC, percent control maximum value and % control baseline were estimated, to determine the influence of the test compound on the glucose tolerance.

male C57Bl/6 mice = test: Acute in vivo food intake test in mice; details: high caloric diet, 100 mg/kg/day oral gavage in two halves
Protocol: 3. Acute in vivo Food Intake Test in Mice
The studies were carried out in individually housed male C57Bl/6 mice (n=8 per group). The mice were kept on an inverted 12/12 h light/dark cycle (lights on 22:00). They were allowed food (high caloric diet) and water ad libitum. Food intake and water consumption was measured daily. The test compound of Formula I was suspended in 1% methylcellulose in water and 2% (v/v) of Poloxamer 188 (Lutrol F68®) and administered by oral gavage at a dose of 100 mg/kg/day.
In the test model described above, the test substances caused a decrease of the animals' 24 h food intake to the percentages of food intake when compared to control as given in table 3 below.

Row | SMILES | melting point [°C] | IC50 [1] [nM] | other results
1 | NS(=O)(=O)N1CCN(c2ccncc2)CC1 (as salt: HCl) [Example 6, 4-pyridin-4-yl-piperazine-1-sulfonic acid amide] | 243 | – | –
2 | Cc1cccc(N2CCN(S(N)(=O)=O)CC2)c1C (as salt: HCl) [Example 8] | 202 | – | –
3 | NS(=O)(=O)N1CCN(c2ccc(F)cc2)CC1 (as salt: HCl) [Example 9, 4-(4-fluoro-phenyl)-piperazine-1-sulfonic acid amide] | 125 | – | –
4 | Cc1ccc(Cl)cc1N1CCN(S(N)(=O)=O)CC1 (as salt: HCl) [Example 11] | 190 | – | –
5 | NS(=O)(=O)N1CCN(c2ccc(Cl)c(C(F)(F)F)c2)CC1 (as salt: HCl) [Example 12, 4-(4-chloro-3-trifluoromethyl-phenyl)-piperazine-1-sulfonic acid amide] | 180 | – | –
6 | N#Cc1cccnc1N1CCN(S(N)(=O)=O)CC1 (as salt: HCl) [Example 13] | 190 | – | –
7 | NS(=O)(=O)N1CCN(c2ncc(C(F)(F)F)cc2Cl)CC1 (as salt: HCl) [Example 14, 4-(3-chloro-5-trifluoromethyl-pyridin-2-yl)-piperazine-1-sulfonic acid amide] | 159 | – | –
8 | CC(=O)c1ccc(N2CCN(S(N)(=O)=O)CC2)cc1 (as salt: HCl) [Example 15] | 156 | – | –
9 | NS(=O)(=O)N1CCN(c2c(Cl)cncc2Cl)CC1 (as salt: HCl) [Example 16] | 206 | – | –
10 | NS(=O)(=O)N1CCN(c2cc(C(F)(F)F)nc3ccccc23)CC1 (as salt: HCl) [Example 17] | 191 | – | –
11 | NS(=O)(=O)N1CCN(c2nccc(C(F)(F)F)n2)CC1 (as salt: HCl) [Example 18] | 156 | – | –
12 | NS(=O)(=O)N1CCN(c2ccc(C(F)(F)F)cn2)CC1 (as salt: HCl) [Example 19] | 169 | – | –
13 | NS(=O)(=O)N1CCN(c2ccc(C(F)(F)F)cc2[N+](=O)[O-])CC1 (as salt: HCl) [Example 20] | 134 | – | –
14 | CS(=O)(=O)c1ccc(N2CCN(S(N)(=O)=O)CC2)c(F)c1 (as salt: HCl) [Example 21] | 184 | – | –
15 | COc1ccccc1N1CCN(S(N)(=O)=O)CC1 [Example 3, 4-(2-Methoxy-phenyl)-piperazine-1-sulfonic acid amide hydrochloride] | – | 7800 | –
16 | NS(=O)(=O)N1CCN(c2ccccn2)CC1 [Example 4, 4-Pyridin-2-yl-piperazine-1-sulfonic acid amide] | – | 3700 | –

Row | SMILES | melting point [°C] | IC50 [1] [nM] | other results
17 | NS(=O)(=O)N1CCN(c2ccncc2)CC1 [Example 6, 4-pyridin-4-yl-piperazine-1-sulfonic acid amide] | – | – | Glucose Baseline (male fatty Zucker rats): 91 % of control; Insulin Baseline (male fatty Zucker rats): 109 % of control; Glucose Maximal effect (male fatty Zucker rats): 84 % of control; Glucose AUC (male fatty Zucker rats): 89 % of control; Insulin AUC (male fatty Zucker rats): 104 % of control; Insulin Maximal effect (male fatty Zucker rats): 123 % of control
18 | NS(=O)(=O)N1CCN(c2ncccn2)CC1 [Example 7, 4-pyrimidin-2-yl-piperazine-1-sulfonic acid amide] | – | 1800 | 24 h food intake (male C57Bl/6 mice): 78 % of control
19 | Cc1cccc(N2CCN(S(N)(=O)=O)CC2)c1C [Example 8] | – | 1700 | –
20 | NS(=O)(=O)N1CCN(c2ccc(F)cc2)CC1 [Example 9, 4-(4-fluoro-phenyl)-piperazine-1-sulfonic acid amide] | – | 7300 | –
21 | NS(=O)(=O)N1CCN(c2cccc(Cl)c2)CC1 [Example 10] | – | 4000 | –
22 | Cc1ccc(Cl)cc1N1CCN(S(N)(=O)=O)CC1 [Example 11] | – | 500 | –
23 | NS(=O)(=O)N1CCN(c2ccc(Cl)c(C(F)(F)F)c2)CC1 [Example 12, 4-(4-chloro-3-trifluoromethyl-phenyl)-piperazine-1-sulfonic acid amide] | – | 1200 | 24 h food intake (male C57Bl/6 mice): 53 % of control
24 | N#Cc1cccnc1N1CCN(S(N)(=O)=O)CC1 [Example 13] | – | 900 | –
25 | NS(=O)(=O)N1CCN(c2ncc(C(F)(F)F)cc2Cl)CC1 [Example 14, 4-(3-chloro-5-trifluoromethyl-pyridin-2-yl)-piperazine-1-sulfonic acid amide] | – | 200 | Glucose Baseline (male fatty Zucker rats): 88 % of control; Insulin Baseline (male fatty Zucker rats): 97 % of control; Glucose Maximal effect (male fatty Zucker rats): 94 % of control; Glucose AUC (male fatty Zucker rats): 102 % of control; Insulin AUC (male fatty Zucker rats): 107 % of control; Insulin Maximal effect (male fatty Zucker rats): 92 % of control
26 | CC(=O)c1ccc(N2CCN(S(N)(=O)=O)CC2)cc1 [Example 15] | – | 400 | 24 h food intake (male C57Bl/6 mice): 79 % of control
27 | NS(=O)(=O)N1CCN(c2c(Cl)cncc2Cl)CC1 [Example 16] | – | 300 | –
28 | NS(=O)(=O)N1CCN(c2cc(C(F)(F)F)nc3ccccc23)CC1 [Example 17] | – | 1900 | –
29 | NS(=O)(=O)N1CCN(c2nccc(C(F)(F)F)n2)CC1 [Example 18] | – | 1600 | –
30 | NS(=O)(=O)N1CCN(c2ccc(C(F)(F)F)cn2)CC1 [Example 19] | – | 80 | –
31 | NS(=O)(=O)N1CCN(c2ccc(C(F)(F)F)cc2[N+](=O)[O-])CC1 [Example 20] | – | 300 | –
32 | CS(=O)(=O)c1ccc(N2CCN(S(N)(=O)=O)CC2)c(F)c1 [Example 21] | – | 200 | 24 h food intake (male C57Bl/6 mice): 76 % of control
